Experimental data as given in the supplement of paper PMC10307832.

Experiments:
Assay in all cases: relative viability (nuclei count vs DMSO), 5 days (fraction); higher = more cells survive
RU-SKI 43 + Navitoclax = compound: CC[C@@H](C)CNCC(=O)N1CCC2=C([C@@H]1COC3=CC=CC(=C3)C)C=CS2 [RU-SKI 43] + CC1(C)CCC(c2ccc(Cl)cc2)=C(CN2CCN(c3ccc(C(=O)NS(=O)(=O)c4ccc(N[C@H](CCN5CCOCC5)CSc5ccccc5)c(S(=O)(=O)C(F)(F)F)c4)cc3)CC2)C1 [Navitoclax] (partner 0.5 µM)
How it was run: (§1)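 One day after seeding in 1536-well plates, lung cancer cell lines were dosed by pin tool. Dosing was either single-drug or a fixed anchor-drug dose plus five library-drug doses (not always all listed) in √10 steps. After 5 days, nuclei were stained in one fix-and-stain step and counted on 4× images, and relative viability is the nuclei count of treated wells over that of vehicle wells, given as the median of duplicate plates.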

RU-SKI 43 + Foretinib = compound: CC[C@@H](C)CNCC(=O)N1CCC2=C([C@@H]1COC3=CC=CC(=C3)C)C=CS2 [RU-SKI 43] + COc1cc2c(Oc3ccc(NC(=O)C4(C(=O)Nc5ccc(F)cc5)CC4)cc3F)ccnc2cc1OCCCN1CCOCC1 [Foretinib] (partner 0.25 µM)
How it was run: as §1

Irinotecan + Alpelisib = compound: CCc1c2c(nc3ccc(OC(=O)N4CCC(N5CCCCC5)CC4)cc13)-c1cc3c(c(=O)n1C2)COC(=O)[C@]3(O)CC [Irinotecan] + Cc1nc(NC(=O)N2CCC[C@H]2C(N)=O)sc1-c1ccnc(C(C)(C)C(F)(F)F)c1 [Alpelisib] (partner 2 µM)
How it was run: as §1

MK-8033 + Lapatinib = compound: Cn1cc(-c2cnc3ccc4ccc(CS(=O)(=O)NCc5ccccn5)cc4c(=O)c3c2)cn1 [MK-8033] + CS(=O)(=O)CCNCc1ccc(-c2ccc3ncnc(Nc4ccc(OCc5cccc(F)c5)c(Cl)c4)c3c2)o1 [Lapatinib] (partner 2 µM)
How it was run: as §1

**Q.** Which relative viability (RU-SKI 43 + Navitoclax; first compound 0.1 µM) does the source give for UMC-11 here?
**A.** Its relative viability is 0.276.

**Q.** And the relative viability (RU-SKI 43 + Navitoclax; first compound 0.3162 µM)?
**A.** The relative viability was 0.315.

**Q.** What about the relative viability (RU-SKI 43 + Navitoclax; first compound 1 µM) of the same cell line?
**A.** Its relative viability is 0.321.

**Q.** And the relative viability (RU-SKI 43 + Navitoclax; first compound 3.162 µM)?
**A.** The relative viability was 0.305.

**Q.** And the relative viability (RU-SKI 43 + Navitoclax; first compound 10 µM)?
**A.** The relative viability was 0.267.

**Q.** What about the relative viability (RU-SKI 43 + Foretinib; first compound 0.1 µM) of the same cell line?
**A.** Its relative viability is 1.07.

**Q.** And the relative viability (RU-SKI 43 + Foretinib; first compound 0.3162 µM)?
**A.** The relative viability was 1.14.

**Q.** And the relative viability (RU-SKI 43 + Foretinib; first compound 1 µM)?
**A.** The relative viability was 1.05.

**Q.** What about the relative viability (RU-SKI 43 + Foretinib; first compound 3.162 µM) of the same cell line?
**A.** Its relative viability is 1.14.

**Q.** And the relative viability (RU-SKI 43 + Foretinib; first compound 10 µM)?
**A.** Its relative viability is 1.03.

**Q.** What about the relative viability (Irinotecan + Alpelisib; first compound 0.6325 µM) of the same cell line?
**A.** Its relative viability is 0.572.

**Q.** What about the relative viability (Irinotecan + Alpelisib; first compound 2 µM) of the same cell line?
**A.** The relative viability was 0.401.

**Q.** And the relative viability (Irinotecan + Alpelisib; first compound 6.325 µM)?
**A.** The relative viability was 0.214.

**Q.** And the relative viability (Irinotecan + Alpelisib; first compound 20 µM)?
**A.** Its relative viability is 0.229.

**Q.** What about the relative viability (MK-8033 + Lapatinib; first compound 0.02 µM) of the same cell line?
**A.** The relative viability was 1.02.

**Q.** And the relative viability (MK-8033 + Lapatinib; first compound 0.06325 µM)?
**A.** Its relative viability is 0.522.

**Q.** And the relative viability (MK-8033 + Lapatinib; first compound 0.2 µM)?
**A.** The relative viability was 0.866.

**Q.** And the relative viability (MK-8033 + Lapatinib; first compound 0.6325 µM)?
**A.** The relative viability was 1.04.

**Q.** What about the relative viability (MK-8033 + Lapatinib; first compound 2 µM) of the same cell line?
**A.** The relative viability was 0.944.
